For experiment [1], the target named is T1, SMARCA2 (Homo sapiens, UniProt P51531).
T1 construct: endogenous in cells; host or cells: RKO cells (CRL-2577, ATCC)
Briefly: SMARCA2 degradation analysis by imaging in RKO cells (DC50 A2). The settings on record: tables 69, 70, 73, 76-78. The class given is cell-based. The method, then: (§1) Determination of SMARCA2 and SMARCA4 Degradation (DC50 A2 and A4 [nM])
(§2) Protein Degradation Assays for SMARCA2 and SMARCA4
(§3) For degradation analysis by imaging, 1250 RKO cells (CRL-2577, ATCC) per well were seeded into 60 μL DMEM (Sigma Aldrich) supplemented with 10% FBS (Hyclone) in 384-well flat bottom plates (CellCarrier Ultra, Perkin Elmer) and incubated at 37° C. and 5% CO2 in a humidified atmosphere overnight. Compounds were added the next day using an Access Labcyte Workstation with a Labcyte Echo 550 or 555 acoustic dispenser and incubated with the cells for 4 or 24 h. Cells were fixed by adding 25 μL fixation buffer (7.4% formaldehyde (Sigma Aldrich F8775), 0.2% Triton TX100 (Sigma Aldrich F93443) in PBS) for 15 minutes at room temperature. After aspirating the fixing solution, the cells were washed once with 25 μL PBS and 25 μL of Blocking Buffer (10% Goat Serum in PBS) were added to each well and incubated for 30 minutes. Cells were washed with PBS and incubated with 20 μL mouse anti-Smarca4 (BRG1) antibody (Cell Signaling #52251) or rabbit anti-Smarca2 (BRM) antibody (Sigma Aldrich HPA029981) in blocking solution (PBS with 10% FCS) for ca. 2-4 h at RT. For detection of the nuclei, 25 μL of 5 μg/mL Hoechst 33342 (stock 10 mg/mL in H2O; Invitrogen H1399) were added together with Alexa Fluor 647 goat anti-mouse IgG (Invitrogen A-21235) or Alexa Fluor 488 goat anti-rabbit IgG (Invitrogen A-11034) in blocking solution and incubated for 60 min at RT. The cell layer was washed with 25 μL PBS, the wells were filled with 25 μL PBS and the plates sealed with an adhesive sheet. The mean intensity at 488 or 647 nm in the nucleus was measured using an Opera Phenix Plus High-Content Screening System (Perkin Elmer), values were normalized to the background and DMSO control and DC50 values were calculated and analyzed using a four-parametric logistic model.

In experiment [2] the target is T2, SMARCA4 (Homo sapiens, UniProt P51532).
T2 construct: endogenous in cells; host or cells: RKO cells (CRL-2577, ATCC)
T2 sequence (P51532 whole entry): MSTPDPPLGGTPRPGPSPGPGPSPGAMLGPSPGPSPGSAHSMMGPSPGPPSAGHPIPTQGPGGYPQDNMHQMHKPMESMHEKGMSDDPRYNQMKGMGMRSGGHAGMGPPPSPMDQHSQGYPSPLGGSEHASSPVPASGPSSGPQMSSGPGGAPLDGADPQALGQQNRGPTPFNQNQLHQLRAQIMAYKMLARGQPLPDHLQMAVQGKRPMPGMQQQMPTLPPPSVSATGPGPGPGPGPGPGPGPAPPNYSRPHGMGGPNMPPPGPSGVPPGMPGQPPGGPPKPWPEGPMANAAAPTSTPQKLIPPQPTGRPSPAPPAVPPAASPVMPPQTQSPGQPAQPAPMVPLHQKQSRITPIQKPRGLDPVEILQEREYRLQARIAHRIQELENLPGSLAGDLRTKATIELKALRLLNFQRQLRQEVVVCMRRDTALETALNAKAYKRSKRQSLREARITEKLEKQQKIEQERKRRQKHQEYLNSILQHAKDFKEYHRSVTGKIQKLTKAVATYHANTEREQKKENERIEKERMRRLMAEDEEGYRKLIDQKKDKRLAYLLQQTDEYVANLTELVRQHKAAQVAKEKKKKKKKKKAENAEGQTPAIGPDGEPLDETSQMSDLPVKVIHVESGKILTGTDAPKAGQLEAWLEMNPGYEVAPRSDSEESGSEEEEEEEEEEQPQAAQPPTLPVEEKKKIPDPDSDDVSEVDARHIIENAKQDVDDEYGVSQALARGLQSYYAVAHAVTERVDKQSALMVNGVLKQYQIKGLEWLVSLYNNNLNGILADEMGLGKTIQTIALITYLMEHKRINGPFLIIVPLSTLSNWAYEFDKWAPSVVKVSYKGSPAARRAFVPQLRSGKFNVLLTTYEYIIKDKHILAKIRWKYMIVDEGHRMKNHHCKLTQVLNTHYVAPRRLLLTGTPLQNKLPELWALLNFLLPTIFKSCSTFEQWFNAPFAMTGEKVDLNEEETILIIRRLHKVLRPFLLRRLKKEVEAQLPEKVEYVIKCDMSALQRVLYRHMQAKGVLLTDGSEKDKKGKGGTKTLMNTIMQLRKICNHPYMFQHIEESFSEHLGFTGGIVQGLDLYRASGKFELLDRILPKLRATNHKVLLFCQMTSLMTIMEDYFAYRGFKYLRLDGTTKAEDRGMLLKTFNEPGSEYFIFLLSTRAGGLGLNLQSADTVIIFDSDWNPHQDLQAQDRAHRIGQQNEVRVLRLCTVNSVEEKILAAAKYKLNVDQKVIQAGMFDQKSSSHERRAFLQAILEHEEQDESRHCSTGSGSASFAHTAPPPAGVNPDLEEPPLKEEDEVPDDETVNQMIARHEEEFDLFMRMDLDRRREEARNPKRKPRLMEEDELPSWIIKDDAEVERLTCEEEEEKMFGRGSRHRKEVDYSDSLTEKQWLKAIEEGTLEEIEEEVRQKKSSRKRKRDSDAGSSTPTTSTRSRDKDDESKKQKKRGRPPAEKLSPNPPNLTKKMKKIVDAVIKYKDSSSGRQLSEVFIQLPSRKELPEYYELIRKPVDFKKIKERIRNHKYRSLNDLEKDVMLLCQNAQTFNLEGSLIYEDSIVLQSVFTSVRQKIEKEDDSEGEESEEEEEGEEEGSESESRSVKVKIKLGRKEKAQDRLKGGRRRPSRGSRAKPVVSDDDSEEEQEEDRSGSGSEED
Briefly: SMARCA4 degradation analysis by imaging in RKO cells (DC50 A4). The class given is cell-based. The settings on record: tables 69, 70, 73, 76-78. Here is the method:
as §1, §2, §3

T1 sequence (P51531 whole entry): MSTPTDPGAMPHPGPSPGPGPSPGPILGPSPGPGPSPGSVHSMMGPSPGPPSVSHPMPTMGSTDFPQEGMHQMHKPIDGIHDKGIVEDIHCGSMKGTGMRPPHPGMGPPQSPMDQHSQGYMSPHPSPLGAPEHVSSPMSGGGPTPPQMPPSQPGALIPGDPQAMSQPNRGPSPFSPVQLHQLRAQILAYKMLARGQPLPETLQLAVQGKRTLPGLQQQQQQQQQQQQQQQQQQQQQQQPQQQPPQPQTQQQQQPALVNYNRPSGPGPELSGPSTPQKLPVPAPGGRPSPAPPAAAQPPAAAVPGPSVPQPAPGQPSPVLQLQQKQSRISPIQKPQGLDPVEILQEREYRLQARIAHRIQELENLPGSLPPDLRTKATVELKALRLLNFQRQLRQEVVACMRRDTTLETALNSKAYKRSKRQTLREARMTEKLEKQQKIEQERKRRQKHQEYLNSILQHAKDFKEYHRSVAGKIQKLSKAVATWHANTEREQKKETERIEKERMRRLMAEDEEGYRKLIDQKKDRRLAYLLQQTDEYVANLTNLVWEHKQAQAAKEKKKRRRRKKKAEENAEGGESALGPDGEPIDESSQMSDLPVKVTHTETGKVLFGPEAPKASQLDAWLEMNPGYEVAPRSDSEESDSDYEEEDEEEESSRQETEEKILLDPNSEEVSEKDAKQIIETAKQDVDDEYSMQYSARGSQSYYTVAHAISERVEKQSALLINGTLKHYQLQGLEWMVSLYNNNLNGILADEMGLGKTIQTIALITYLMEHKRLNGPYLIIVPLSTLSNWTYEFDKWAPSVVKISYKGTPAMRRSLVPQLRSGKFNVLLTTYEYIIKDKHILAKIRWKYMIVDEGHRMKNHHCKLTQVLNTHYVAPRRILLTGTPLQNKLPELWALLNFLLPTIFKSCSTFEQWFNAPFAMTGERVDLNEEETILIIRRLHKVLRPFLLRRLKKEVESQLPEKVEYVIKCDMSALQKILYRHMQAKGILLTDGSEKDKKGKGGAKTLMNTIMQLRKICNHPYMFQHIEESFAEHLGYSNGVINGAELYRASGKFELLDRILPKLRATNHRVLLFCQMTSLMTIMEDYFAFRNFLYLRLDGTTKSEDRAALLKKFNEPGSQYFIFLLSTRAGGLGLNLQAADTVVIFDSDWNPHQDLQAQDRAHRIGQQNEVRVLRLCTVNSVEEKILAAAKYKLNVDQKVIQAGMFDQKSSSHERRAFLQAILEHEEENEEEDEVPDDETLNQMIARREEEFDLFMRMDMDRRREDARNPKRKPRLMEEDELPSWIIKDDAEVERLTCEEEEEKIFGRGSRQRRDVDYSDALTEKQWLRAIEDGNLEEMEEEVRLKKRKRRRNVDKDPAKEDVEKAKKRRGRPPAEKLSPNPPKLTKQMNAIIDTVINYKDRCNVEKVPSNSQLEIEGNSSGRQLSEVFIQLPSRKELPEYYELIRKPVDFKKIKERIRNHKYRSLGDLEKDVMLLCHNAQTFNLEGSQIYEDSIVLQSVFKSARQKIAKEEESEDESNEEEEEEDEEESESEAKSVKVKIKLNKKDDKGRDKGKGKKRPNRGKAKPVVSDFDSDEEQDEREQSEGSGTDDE

Regarding `Cc1ncsc1-c1ccc([C@H](CC[C@H](C)CCN2CCC(c3ccc4c(c3)n(C3CCCC3)c3nc(=O)c5c(Br)cccc5n43)CC2)NC(=O)[C@@H]2C[C@@H](O)CN2C(=O)[C@@H](NC(=O)C2(F)CC2)C(C)(C)C)cc1` [Compound 42a], the results for the DC50 in experiment [1] and in experiment [2] were 0.9 nM and 25 nM, respectively.

Turning to `Cc1ncsc1-c1ccc([C@H](CCCN2CCC(c3cc4c(cc3OCCCN(C)C)n3c5cccc(Br)c5c(=O)nc3n4C3CCCC3)CC2)NC(=O)[C@@H]2C[C@@H](O)CN2C(=O)[C@@H](NC(=O)C2(F)CC2)C(C)(C)C)cc1` [Compound 42aa], the DC50 (as a rule, the concentration at which degradation of the target reaches its halfway point) in experiment [1] came out at 10 nM; in experiment [2] it was 20 nM.

For the compound `Cc1ncsc1-c1ccc([C@H](COCCN2CCC(c3cc4c(cc3OCCN3CCN(C)CC3)n3c5cccc(Br)c5c(=O)nc3n4C3CCCC3)CC2)NC(=O)[C@@H]2C[C@@H](O)CN2C(=O)[C@@H](NC(=O)C2(F)CC2)C(C)(C)C)cc1` [Compound 42ab], the DC50 in experiment [1] is 21 nM; in experiment [2], over 200 nM.

With `Cc1ncsc1-c1ccc([C@H](CO[C@@H](C)CN2CCC(c3ccc4c(c3)n(C3CCCC3)c3nc(=O)c5c(Br)cccc5n43)CC2)NC(=O)[C@@H]2C[C@@H](O)CN2C(=O)[C@@H](NC(=O)C2(F)CC2)C(C)(C)C)cc1` [Compound 42ac], the 50% degradation concentration (DC50) was 20 nM in experiment [1] and over 200 nM in experiment [2].

With `Cc1ncsc1-c1ccc([C@H](CCCN2CCC(c3ccc4c(c3)n(C3COC3)c3nc(=O)c5c(Br)cccc5n43)CC2)NC(=O)[C@@H]2C[C@@H](O)CN2C(=O)[C@@H](NC(=O)C2(F)CC2)C(C)(C)C)cc1` [Compound 42ad], the results for the DC50 in experiment [1] and in experiment [2] were 25 nM and over 200 nM, respectively.

In the case of `CC(C)(C)[C@H](NC(=O)C1(F)CC1)C(=O)N1C[C@H](O)C[C@H]1C(=O)N[C@@H](CCCN1CCC(c2ccc3c(c2)n(C2CCCC2)c2nc(=O)c4c(Br)cccc4n32)CC1)c1ccc(-c2cncs2)cc1` [Compound 42ae], the DC50 in experiment [1] worked out at 1 nM; in experiment [2] it was 5 nM.

`Cc1ncsc1-c1ccc([C@H](COCC(O)CN2CCC(c3ccc4c(c3)n(C3CCCC3)c3nc(=O)c5c(Br)cccc5n43)CC2)NC(=O)[C@@H]2C[C@@H](O)CN2C(=O)[C@@H](NC(=O)C2(F)CC2)C(C)(C)C)cc1` (stereo partly drawn) [Compound 42af]: the DC50 in experiment [1] is 6 nM; in experiment [2], 25 nM.

For the compound `CCn1c2cc(C3CCN(CCCCCOC[C@H](NC(=O)[C@@H]4C[C@@H](O)CN4C(=O)[C@@H](NC(=O)C4(N(C)C)CC4)C(C)(C)C)c4ccc(-c5scnc5C)cc4)CC3)c(OCCOCCOC)cc2n2c3cccc(Br)c3c(=O)nc12` [Compound 42ag], the DC50 in experiment [1] is 9 nM; in experiment [2], over 200 nM.

Take `Cc1ncsc1-c1ccc([C@H](CCCN2CCC(c3ccc4c(c3)n(C3CCCC3)c3nc(=O)c5c(Br)cccc5n43)CC2)NC(=O)[C@@H]2C[C@@H](O)CN2C(=O)[C@@H](NC(=O)C2(N(C)C)CC2)C(C)(C)C)cc1` [Compound 42ah]: the DC50 in experiment [1] amounted to 2 nM; in experiment [2] it was 17 nM.

Consider `Cc1ncsc1-c1ccc([C@H](CCCCN2CCC(c3ccc4c(c3)n(C3CCCC3)c3nc(=O)c5c(Br)cccc5n43)CC2)NC(=O)[C@@H]2C[C@@H](O)CN2C(=O)[C@@H](NC(=O)C2(F)CC2)C(C)(C)C)cc1` [Compound 42ai], for which the results for the DC50 in experiment [1] and in experiment [2] were 2 nM and 9 nM, respectively.

Compound `Cc1ncsc1-c1ccc([C@H](COCCN2CCC(c3ccc4c(c3)n(C3CCCC3)c3nc(=O)c5c(Br)cccc5n43)CC2)NC(=O)[C@@H]2C[C@@H](O)CN2C(=O)[C@@H](NC(=O)C2(N(C)C)CC2)C(C)(C)C)cc1` [Compound 42aj] gave a DC50 in experiment [1] of 4 nM.

`Cc1ncsc1-c1ccc([C@H](COCCCN2CCC(c3ccc4c(c3)n(C3CCCC3)c3nc(=O)c5c(Br)cccc5n43)CC2)NC(=O)[C@@H]2C[C@@H](O)CN2C(=O)[C@@H](NC(=O)C2(F)CC2)C(C)(C)C)cc1` [Compound 42ak]: the DC50 in experiment [1] amounted to 2 nM; in experiment [2], 11 nM.

Turning to `Cc1ncsc1-c1ccc([C@H](CCCN2CCC(c3cc4c(cc3OCCOCCO)n3c5cccc(Br)c5c(=O)nc3n4C3CCCC3)CC2)NC(=O)[C@@H]2C[C@@H](O)CN2C(=O)[C@@H](NC(=O)C2(F)CC2)C(C)(C)C)cc1` [Compound 42am], the DC50 was found to be 0.9 nM in experiment [1] and 25 nM in experiment [2].

As for `Cc1ncsc1-c1ccc([C@H](CO[C@H](C)CN2CCC(c3cc4c(cc3OC[C@@H]3CCCO3)n3c5cccc(Br)c5c(=O)nc3n4C3CCCC3)CC2)NC(=O)[C@@H]2C[C@@H](O)CN2C(=O)[C@@H](NC(=O)C2(F)CC2)C23CC4CC(CC(C4)C2)C3)cc1` [Compound 42an], the DC50 in experiment [1] worked out at 0.6 nM; in experiment [2] it was 7 nM.

Turning to `Cc1ncsc1-c1ccc([C@H](CCCCCN2CCN(c3ccc4c(c3)n(C3CCCC3)c3nc(=O)c5c(Br)cccc5n43)CC2(C)C)NC(=O)[C@@H]2C[C@@H](O)CN2C(=O)[C@@H](NC(=O)C2(F)CC2)C(C)(C)C)cc1` [Compound 42ao], the values for the 50% degradation concentration (DC50) in experiment [1] and in experiment [2] were 1 nM and 17 nM, respectively.

With `Cc1ncsc1-c1ccc([C@H](CCCCCN2CCN(c3ccc4c(c3)n(C3CCCC3)c3nc(=O)c5c(Br)cccc5n43)[C@H](C)C2)NC(=O)[C@@H]2C[C@@H](O)CN2C(=O)[C@@H](NC(=O)C2(F)CC2)C(C)(C)C)cc1` [Compound 42aq], the DC50 was determined as 1 nM in experiment [1] and 9 nM in experiment [2].

In the case of `Cc1ncsc1-c1ccc([C@H](CCCCCN2CCN(c3ccc4c(c3)n(C3CCCC3)c3nc(=O)c5c(Br)cccc5n43)[C@@H](C)C2)NC(=O)[C@@H]2C[C@@H](O)CN2C(=O)[C@@H](NC(=O)C2(F)CC2)C(C)(C)C)cc1` [Compound 42ar], the results for the DC50 in experiment [1] and in experiment [2] were 0.5 nM and 2 nM, respectively.

With `Cc1ncsc1-c1ccc([C@@H](CC[C@@H](C)CCN2CCC(c3ccc4c(c3)n(C3CCCC3)c3nc(=O)c5c(Br)cccc5n43)CC2)NC(=O)[C@@H]2C[C@@H](O)CN2C(=O)[C@@H](NC(=O)C2(F)CC2)C(C)(C)C)cc1` [Compound 42as], the figures for the DC50 in experiment [1] and in experiment [2] were 82 nM and over 833 nM, respectively.

With `Cc1ncsc1-c1ccc([C@@H](CC[C@H](C)CCN2CCC(c3ccc4c(c3)n(C3CCCC3)c3nc(=O)c5c(Br)cccc5n43)CC2)NC(=O)[C@@H]2C[C@@H](O)CN2C(=O)[C@@H](NC(=O)C2(F)CC2)C(C)(C)C)cc1` [Compound 42at], the DC50 in experiment [1] is 57 nM; in experiment [2], over 833 nM.

`Cc1ncsc1-c1ccc([C@H](CCCCCN2C[C@@H]3C[C@H]2CN3c2ccc3c(c2)n(C2CCCC2)c2nc(=O)c4c(Br)cccc4n32)NC(=O)[C@@H]2C[C@@H](O)CN2C(=O)[C@@H](NC(=O)C2(F)CC2)C(C)(C)C)cc1` [Compound 42au]: the figures for the DC50 in experiment [1] and in experiment [2] were 7 nM and over 833 nM, respectively.

Regarding `Cc1ncsc1-c1ccc([C@H](COCCN2CCC(c3cc4c(cc3F)n3c5cccc(Br)c5c(=O)nc3n4C3CCCC3)CC2)NC(=O)[C@@H]2C[C@@H](O)CN2C(=O)[C@@H](NC(=O)C2(F)CC2)C(C)(C)C)cc1` [Compound 42av], the DC50 worked out at 13 nM in experiment [1] and 162 nM in experiment [2].

`Cc1ncsc1-c1ccc([C@H](CCCCCN2CCC(c3cc4c(cn3)n3c5cccc(Br)c5c(=O)nc3n4C3CCCC3)CC2)NC(=O)[C@@H]2C[C@@H](O)CN2C(=O)[C@@H](NC(=O)C2(F)CC2)C(C)(C)C)cc1` [Compound 42aw]: the DC50 in experiment [1] is 6 nM; in experiment [2], over 833 nM.

Regarding `Cc1ncsc1-c1ccc([C@H](CCCCN(C)C2CCC(c3ccc4c(c3)n(C3CCCC3)c3nc(=O)c5c(Br)cccc5n43)CC2)NC(=O)[C@@H]2C[C@@H](O)CN2C(=O)[C@@H](NC(=O)C2(F)CC2)C(C)(C)C)cc1` (stereo partly drawn) [Compound 42ax], the DC50 in experiment [1] was 7 nM; in experiment [2], 29 nM.

In the case of `COc1cc2c(cc1C1CCN(CCOC[C@H](NC(=O)[C@@H]3C[C@@H](O)CN3C(=O)[C@@H](NC(=O)C3(F)CC3)C(C)(C)C)c3ccc(-c4scnc4C)cc3)CC1)n(C1CCCC1)c1nc(=O)c3c(Br)cccc3n21` [Compound 42ay], the DC50 in experiment [1] stood at 15 nM; in experiment [2], 109 nM.

For `Cc1ncsc1-c1ccc([C@H](COCCN2CCC(c3cc4c(cc3OC3CCOC3)n3c5cccc(Br)c5c(=O)nc3n4C3CCCC3)CC2)NC(=O)[C@@H]2C[C@@H](O)CN2C(=O)[C@@H](NC(=O)C2(F)CC2)C(C)(C)C)cc1` (stereo partly drawn) [Compound 42az], the DC50 stood at 36 nM in experiment [1] and 800 nM in experiment [2].

`Cc1ncsc1-c1ccc([C@H](CC[C@H](C)CCN2CCC(c3ccc4c(c3)n([C@H]3CCOC3)c3nc(=O)c5c(Br)cccc5n43)CC2)NC(=O)[C@@H]2C[C@@H](O)CN2C(=O)[C@@H](NC(=O)C2(F)CC2)C(C)(C)C)cc1` [Compound 42b]: the DC50 is 2 nM in experiment [1] and over 833 nM in experiment [2].

(Values after patent US20250049929A1, “NOVEL TETRAHYDROQUINOLINES AND PROTEOLYSIS TARGETING CHIMERA (PROTACS) COMPRISING THEM AS DEGRADERS OF SMARCA” (Boehringer Ingelheim International GmbH, priority 2021, published 2025).)
